Reference: the NIST ThermoML archive (doi:10.1021/je700260f)

Conditions: Liquid, Vibrating tube method

FC(C(F)(F)F)C(F)(F)F [1,1,1,2,3,3,3-heptafluoropropane]
Conditions	mass density [kg/m3]
293.15 K, 27338 kPa	1533.2
293.15 K, 27374 kPa	1533.1
293.15 K, 27410 kPa	1533.2
293.15 K, 27435 kPa	1533.3
293.15 K, 27481 kPa	1533.5
293.15 K, 27522 kPa	1533.7
293.15 K, 27553 kPa	1533.7
293.15 K, 27589 kPa	1533.9
293.15 K, 27619 kPa	1533.9
293.15 K, 27655 kPa	1534
293.15 K, 27692 kPa	1534.2
293.15 K, 27728 kPa	1534.3
293.15 K, 27759 kPa	1534.5
293.15 K, 27800 kPa	1534.5
293.15 K, 27841 kPa	1534.6
293.15 K, 27871 kPa	1534.8
293.15 K, 27912 kPa	1534.9
293.15 K, 27953 kPa	1534.9
293.15 K, 27984 kPa	1535.1
293.15 K, 28026 kPa	1535.1
293.15 K, 28067 kPa	1535.5
293.15 K, 28097 kPa	1535.4
293.15 K, 28144 kPa	1535.6
293.15 K, 28185 kPa	1535.7
293.15 K, 28216 kPa	1535.9
293.15 K, 28258 kPa	1536
293.15 K, 28300 kPa	1536
293.15 K, 28327 kPa	1536.1
293.15 K, 28369 kPa	1536.4
293.15 K, 28411 kPa	1536.5
293.15 K, 28442 kPa	1536.7
293.15 K, 28484 kPa	1536.7
293.15 K, 28520 kPa	1536.8
293.15 K, 28556 kPa	1536.8
293.15 K, 28588 kPa	1537.1
293.15 K, 28619 kPa	1537.1
293.15 K, 28667 kPa	1537.3
293.15 K, 28709 kPa	1537.3
293.15 K, 28735 kPa	1537.5
293.15 K, 28783 kPa	1537.7
293.15 K, 28823 kPa	1537.8
293.15 K, 28855 kPa	1537.9
293.15 K, 28908 kPa	1538.1
293.15 K, 28956 kPa	1538.2
293.15 K, 28983 kPa	1538.2
293.15 K, 29030 kPa	1538.3
293.15 K, 29072 kPa	1538.5
293.15 K, 29104 kPa	1538.5
293.15 K, 29147 kPa	1538.8
293.15 K, 29179 kPa	1538.8
293.15 K, 29229 kPa	1539.1
293.15 K, 29256 kPa	1539.1
293.15 K, 29289 kPa	1539.1
293.15 K, 29337 kPa	1539.3
293.15 K, 29385 kPa	1539.4
293.15 K, 29417 kPa	1539.6
293.15 K, 29460 kPa	1539.7
293.15 K, 29497 kPa	1539.7
293.15 K, 29528 kPa	1540
293.15 K, 29566 kPa	1540
293.15 K, 29603 kPa	1540.2
293.15 K, 29637 kPa	1540.3
293.15 K, 29675 kPa	1540.4
293.15 K, 29718 kPa	1540.6
293.15 K, 29751 kPa	1540.4
293.15 K, 29782 kPa	1540.6
293.15 K, 29810 kPa	1540.8
293.15 K, 29843 kPa	1540.9
293.15 K, 29870 kPa	1540.9
293.15 K, 29903 kPa	1541.1
293.15 K, 29936 kPa	1541.1
293.15 K, 29969 kPa	1541.3
293.15 K, 29997 kPa	1541.2
293.15 K, 30026 kPa	1541.4
293.15 K, 30054 kPa	1541.5
293.15 K, 30083 kPa	1541.6
293.15 K, 30120 kPa	1541.8
293.15 K, 30153 kPa	1541.8
293.15 K, 30181 kPa	1541.9
293.15 K, 30215 kPa	1542
293.15 K, 30248 kPa	1542.1
293.15 K, 30287 kPa	1542.3
293.15 K, 30316 kPa	1542.4
293.15 K, 30350 kPa	1542.5
293.15 K, 30389 kPa	1542.5
293.15 K, 30423 kPa	1542.7
293.15 K, 30456 kPa	1542.8
293.15 K, 30493 kPa	1542.8
293.15 K, 30522 kPa	1542.9
293.15 K, 30560 kPa	1543.2
293.15 K, 30598 kPa	1543.1
293.15 K, 30626 kPa	1543.2
293.15 K, 30669 kPa	1543.4
293.15 K, 30713 kPa	1543.5
293.15 K, 30742 kPa	1543.5
293.15 K, 30776 kPa	1543.6
293.15 K, 30815 kPa	1543.8
293.15 K, 30853 kPa	1543.9
293.15 K, 30887 kPa	1543.9
293.15 K, 30920 kPa	1544.1
293.15 K, 30958 kPa	1544.3
293.15 K, 30982 kPa	1544.4
293.15 K, 31020 kPa	1544.4
293.15 K, 31063 kPa	1544.6
293.15 K, 31092 kPa	1544.7
293.15 K, 31136 kPa	1544.7
293.15 K, 31164 kPa	1544.7
293.15 K, 31189 kPa	1544.9
293.15 K, 31232 kPa	1545.1
293.15 K, 31270 kPa	1545.2
293.15 K, 31299 kPa	1545.2
293.15 K, 31327 kPa	1545.4
293.15 K, 31356 kPa	1545.3
293.15 K, 31400 kPa	1545.5
293.15 K, 31438 kPa	1545.7
293.15 K, 31468 kPa	1545.7
293.15 K, 31506 kPa	1545.8
293.15 K, 31537 kPa	1546
293.15 K, 31563 kPa	1546.1
293.15 K, 31593 kPa	1546.1
293.15 K, 31636 kPa	1546.3
293.15 K, 31669 kPa	1546.4
293.15 K, 31698 kPa	1546.4
293.15 K, 31742 kPa	1546.6
293.15 K, 31786 kPa	1546.7
293.15 K, 31815 kPa	1546.8
293.15 K, 31854 kPa	1546.8
293.15 K, 31882 kPa	1547
293.15 K, 31919 kPa	1547.1
293.15 K, 31954 kPa	1547.1
293.15 K, 31986 kPa	1547.3
293.15 K, 32022 kPa	1547.3
293.15 K, 32055 kPa	1547.6
293.15 K, 32096 kPa	1547.7
293.15 K, 32136 kPa	1547.8
293.15 K, 32163 kPa	1547.7
293.15 K, 32205 kPa	1548
293.15 K, 32245 kPa	1548.1
293.15 K, 32272 kPa	1548.1
293.15 K, 32309 kPa	1548.2
293.15 K, 32338 kPa	1548.3
293.15 K, 32381 kPa	1548.3
293.15 K, 32418 kPa	1548.5
293.15 K, 32447 kPa	1548.7
293.15 K, 32494 kPa	1548.7
293.15 K, 32531 kPa	1548.9
293.15 K, 32565 kPa	1548.9
293.15 K, 32598 kPa	1549
293.15 K, 32635 kPa	1549.1
293.15 K, 32668 kPa	1549.3
293.15 K, 32711 kPa	1549.4
293.15 K, 33629 kPa	1552.1
293.15 K, 33659 kPa	1552.1
293.15 K, 33704 kPa	1552.3
293.15 K, 33734 kPa	1552.3
293.15 K, 33769 kPa	1552.5
293.15 K, 33809 kPa	1552.5
293.15 K, 33844 kPa	1552.5
293.15 K, 33879 kPa	1552.6
293.15 K, 33925 kPa	1552.9
293.15 K, 33976 kPa	1553.1
293.15 K, 34008 kPa	1553
293.15 K, 34053 kPa	1553.2
293.15 K, 34100 kPa	1553.3
293.15 K, 34131 kPa	1553.5
293.15 K, 34173 kPa	1553.5
293.15 K, 34220 kPa	1553.9
293.15 K, 34257 kPa	1553.9
293.15 K, 34293 kPa	1553.8
293.15 K, 34336 kPa	1554
293.15 K, 34374 kPa	1554.1
293.15 K, 34415 kPa	1554.3
293.15 K, 34442 kPa	1554.3
293.15 K, 34464 kPa	1554.4
293.15 K, 34489 kPa	1554.4
293.15 K, 34511 kPa	1554.7
293.15 K, 34523 kPa	1554.6
293.15 K, 34537 kPa	1554.6
293.15 K, 34546 kPa	1554.6
303.14 K, 1230 kPa	1372.6
303.14 K, 7245 kPa	1416.2
303.14 K, 7273 kPa	1416.3
303.14 K, 7298 kPa	1416.5
303.14 K, 7327 kPa	1416.7
303.14 K, 7356 kPa	1416.8
303.14 K, 7384 kPa	1417.1
303.14 K, 7413 kPa	1417.1
303.14 K, 10852 kPa	1437.1
303.14 K, 10890 kPa	1437.1
303.14 K, 10918 kPa	1437.3
303.14 K, 10989 kPa	1437.6
303.14 K, 12092 kPa	1443.4
303.14 K, 12132 kPa	1443.6
303.14 K, 12163 kPa	1443.8
303.14 K, 12207 kPa	1443.9
303.14 K, 12242 kPa	1444.1
303.14 K, 12284 kPa	1444.2
303.14 K, 12330 kPa	1444.6
303.14 K, 12373 kPa	1444.7
303.14 K, 14583 kPa	1455.6
303.14 K, 14620 kPa	1455.8
303.14 K, 14653 kPa	1455.9
303.14 K, 14687 kPa	1456
303.14 K, 14726 kPa	1456.4
303.14 K, 14755 kPa	1456.5
